Data: PubChem BioAssay AID2060882 (Molecular Pharmacology Branch, DTP, NCI, 2025)
“And” between values parts separate entries of the source, which are not always exact repeats. Equal values may be shown once.

Tested on: 898857-211-R-J1-PDC complex spheroids, growth % test/control
Assay: Anticancer human tumor 898857-211-R-J1-PDC patient-derived melanoma cell line growth inhibition [RAS]
Conditions: for viability, T/C: stronger effect = lower value
Description: RAS pathway inhibitors in Combinations in Complex Spheroids
A high-throughput screen of multi-cell type tumor spheroids was designed to identify active combinations of RAS pathway inhibitors and targeted small molecules. Complex spheroids include a stromal component modeled by human endothelial cells (HUVEC) and fibroblasts modeled by human mesenchymal stem cells (MSCs). The concentration ranges selected for each drug and investigational agent were based upon clinically achievable concentrations if the clinical Cmax of the agent was known.
Compounds. The drugs and investigational agents: abemaciclib (NSC768073), cobimetinib (NSC768068), divarasib (GDC6063, NSC841802), docetaxel (NSC628503), GDC-1971 (RLY-1971, NSC841576), gemcitabine (NSC613327), inavolisib (NSC800729), ipatasertib (NSC767898), KB-0742 (NSC834161), MRTX-1133 (NSC836407), osimertinib (NSC779217), RMC-4630 (NSC839698), RMC-6236 (NSC851965), RMC-6291 (NSC852671), Ro-3306 (NSC812927), sapanisertib (NSC764658), SN-38 (NSC673596), staurosporine (NSC755774), SY5609 (NSC837396), and tovorafenib (DAY101, NSC766906), were obtained from the National Cancer Institute (NCI) Developmental Therapeutics Program Chemical Repository. The FDA-approved anticancer drug set is available from the NCI Developmental Therapeutics Program. […] The stock solutions were prepared in dimethyl sulfoxide (DMSO, Sigma-Aldrich, St. Louis, MO, cat. D2650) at 800-fold the tested concentration and stored at -70 degrees C prior to their use. All drugs and investigational agents were tested over a range starting from a high concentration at or near the clinical Cmax and decreasing in half-log increments. If the clinical Cmax for an agent had not been determined, the highest concentration tested was 10 microM.
Cell Culture. All cells were maintained in an incubator at 37 degrees C and 5% CO2 with 95% humidity. The PDC lines were cultured according to standard operating procedures established by the NCI PDMR. All PDCs were thawed and cultured in Matrigel-coated flasks prepared with a working solution of 1X Ham's F-12 nutrient mix, without supplementation (Invitrogen, Waltham, MA, cat. 11765054), 100 U/mL penicillin-streptomycin (Invitrogen, cat. 15140122), and 2.5% Matrigel (Corning Inc., Corning, NY, cat. 354248) for the first three passages. The 362531-283-R-J2-PDC and 782815-120-R-J1-PDC lines were cultured in 6C/Colon 1B media, which includes advanced DMEM/F-12 (Thermo Fisher Scientific, cat. 12634028), 10 mM HEPES (Thermo Fisher Scientific, cat. 15630080), 1X GlutaMAX supplement (Thermo Fisher Scientific, cat. 35050061), 0.1 mg/mL primocin (InvivoGen, San Diego, CA, cat. ant-pm-2), 10% defined fetal bovine serum, heat inactivated (HyClone Laboratories Inc., Logan, UT, cat. SH30070.03HI), 50% L-WRN conditioned media (ATCC, cat. CRL-3276), 1.25 mM N-Acetyl-L-cysteine (Sigma-Aldrich, cat. A9165), 10 mM nicotinamide (Sigma-Aldrich, cat. N0636), 1X B-27 supplement (Thermo Fisher Scientific, cat. 17504044), 1X N-2 supplement (Thermo Fisher Scientific, cat. 17502048), 50 ng/mL human EGF (Thermo Fisher Scientific, cat. PHG0311), and 10 microM Y-27632 dihydrochloride (Tocris Bioscience, cat. 1254). The K12877-001-R-J1-PDC line was cultured in 6I media, which includes all 6C/Colon 1B media plus 10 ng/mL human FGF-10 (PeproTech, cat. 100-26), 1 ng/mL human FGF-2 (PeproTech, cat. 100-18B), 1 µM prostaglandin E2 (Tocris Bioscience, cat. 2296), […] hydrocortisone (Sigma-Aldrich, cat. H4001), and […] bovine insulin (Sigma-Aldrich, cat. I6634). The K86415-001-R-J1-PDC line was cultured in 6D media, which includes all 6C/Colon 1B media components minus the L-WRN conditioned media. The 485176-168-R4-J1-PDC was cultured in PANC media, which includes all 6C/Colon 1B media plus 100 ng/mL human FGF-10 (PeproTech, cat. 100-26), 500 nM SB-431542 (Selleckchem, cat. S1067), and 10 nM gastrin (Tocris Bioscience, cat. 3006). […]
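Note: spheroids exposed to compound for seven days before readout.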
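Throughout, for viability, T/C: 100% = DMSO vehicle control wells.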

With CC(C)n1nc(-c2ccc3oc(N)nc3c2)c2c(N)ncnc21 the viability, T/C (compound 0.000316 µM) was 112% [middle of 4 runs], the viability, T/C (compound 0.001 µM) was 95.8% [middle of 4 runs] and the viability, T/C (compound 0.00316 µM) was 96.8% [middle of 4 runs]. The viability, T/C (compound 0.01 µM) was 73.3% [middle of 4 runs], the viability, T/C (compound 0.0316 µM) was 48.5% [middle of 4 runs] and the viability, T/C (compound 0.1 µM) was 20.9% [middle of 4 runs]. For the same molecule, the IC50 (curve of compound) was 28.7 nM [middle of 4 runs].

CC1(C)CCC(Nc2ncc(C(F)(F)F)c(-c3c[nH]c4c(P(C)(C)=O)c(C#N)ccc34)n2)CN1 (stereo not drawn) was tested, and the viability, T/C (compound 0.000949 µM) was 92.3% and 96.9% and 98.6%, the viability, T/C (compound 0.003 µM) was 59.9% and 52.9% and 65.2% and the viability, T/C (compound 0.00949 µM) was 31.4% and 26.4% and 32.5%. The viability, T/C (compound 0.03 µM) was 20.2% and 16.2% and 24.3%, the viability, T/C (compound 0.0949 µM) was 17.3% and 16.8% and 20.4% and the viability, T/C (compound 0.3 µM) was 18.4% and 16.5% and 20%. The IC50 (curve of compound) was 4.47 nM and 3.41 nM and 5.16 nM.

With CCN1CCN(Cc2ccc(Nc3ncc(F)c(-c4cc(F)c5nc(C)n(C(C)C)c5c4)n3)nc2)CC1 the viability, T/C (compound 0.00316 µM) was 112% and 130% and 92.5%, the viability, T/C (compound 0.01 µM) was 92% (2×) and 103% and the viability, T/C (compound 0.0316 µM) was 97.3% and 96% and 83%. For the same molecule, the viability, T/C (compound 0.1 µM) was 73.1% and 62.7% and 65.1%, the viability, T/C (compound 0.316 µM) was 51.2% and 51.1% and 55.3% and the viability, T/C (compound 1 µM) was 44.4% and 36% and 33.4%. For the same molecule, the IC50 (curve of compound) was 444 nM and 323 nM and 370 nM.

In the case of CCc1c2c(nc3ccc(O)cc13)-c1cc3c(c(=O)n1C2)COC(=O)[C@]3(O)CC, the viability, T/C (compound 0.000949 µM) is reported as 96.5% [middle of 4 runs], the viability, T/C (compound 0.003 µM) is reported as 65.1% [middle of 4 runs] and the viability, T/C (compound 0.00949 µM) is reported as 30.4% [middle of 4 runs]. For the same molecule, the viability, T/C (compound 0.03 µM) was 10.2% [middle of 4 runs], the viability, T/C (compound 0.0949 µM) was 7.84% [middle of 4 runs] and the viability, T/C (compound 0.3 µM) was 7.49% [middle of 4 runs]. For the same molecule, the IC50 (curve of compound) was 4.92 nM [middle of 4 runs].

In the case of CCn1c(-c2cc(N3CCN(C)CC3)cnc2C(C)OC)c2c3cc(ccc31)-c1csc(n1)CC(NC(=O)C1CC1C)C(=O)N1CCCC(N1)C(=O)OCC(C)(C)C2 (stereo not drawn), the viability, T/C (compound 0.000949 µM) is reported as 111% [middle of 8 runs], the viability, T/C (compound 0.003 µM) is reported as 109% [middle of 8 runs] and the viability, T/C (compound 0.00949 µM) is reported as 102% [middle of 8 runs]. The viability, T/C (compound 0.03 µM) was 105% [middle of 8 runs], the viability, T/C (compound 0.0949 µM) was 96.2% [middle of 8 runs] and the viability, T/C (compound 0.3 µM) was 100% [middle of 8 runs]. The IC50 (compound alone, run of 08/26/2024) was > 300 nM.

CCn1c(-c2cccnc2C(C)OC)c2c3cc(ccc31)N1CCOC(CC(NC(=O)C(C(C)C)N(C)C(=O)C3(F)CCN(C(=O)C#CC(C)(C)N(C)C)CC3)C(=O)N3CCCC(N3)C(=O)OCC(C)(C)C2)C1 (stereo not drawn) was tested, and the viability, T/C (compound 0.000949 µM) was 110% [middle of 6 runs], the viability, T/C (compound 0.00949 µM) was 112% [middle of 6 runs] and the viability, T/C (compound 0.03 µM) was 103% [middle of 6 runs]. The viability, T/C (compound 0.0949 µM) was 92.8% [middle of 6 runs], the viability, T/C (compound 0.3 µM) was 81.3% [middle of 6 runs] and the IC50 (compound alone, run of 08/20/2024) was > 300 nM.

In the case of Nc1ccn(C2OC(CO)C(O)C2(F)F)c(=O)n1 (stereo not drawn), the viability, T/C (compound 0.01 µM) is reported as 30.2% [middle of 4 runs], the viability, T/C (compound 0.0316 µM) is reported as 6.09% [middle of 4 runs] and the viability, T/C (compound 0.1 µM) is reported as 4.85% [middle of 4 runs]. For the same molecule, the viability, T/C (compound 0.316 µM) was 4.59% [middle of 4 runs], the viability, T/C (compound 1 µM) was 4.83% [middle of 4 runs] and the IC50 (curve of compound) was 7.17 nM [middle of 4 runs].

For O=C(c1ccc(F)c(F)c1Nc1ccc(I)cc1F)N1CC(O)([C@@H]2CCCCN2)C1, the viability, T/C (compound 0.00316 µM) was 56.5% [middle of 4 runs], the viability, T/C (compound 0.01 µM) was 40.4% (2×) and 26.7% and 33.1% and the viability, T/C (compound 0.0316 µM) was 28.9% [middle of 4 runs]. For the same molecule, the viability, T/C (compound 0.1 µM) was 20.3% [middle of 4 runs], the viability, T/C (compound 0.316 µM) was 18.5% [middle of 4 runs] and the viability, T/C (compound 1 µM) was 13.4% [middle of 4 runs].
